Results published in patent US11427553B2, “Dihydrooxadiazinones” (Bayer Aktiengesellschaft, priority 2017, dated 2022).

Columns and labels:
human full length PDE3A = human full length PDE3A (Homo sapiens (Human), UniProt Q14432); assay: Assay 4 PDE3A enzyme inhibition (3H-cAMP SPA); type: biochemical; settings: Sf9 cell extract
Summary of the method: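 Enzyme: Sf9 extract with overexpressed full-length PDE3A; substrate [8-3H]cAMP, 0.025 μCi/well; 60 min, room temperature, Tris/HCl pH 7.5 buffer with MgCl2, EDTA, BSA.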

SK-MEL-3 cells = assay: Assay 1 cell proliferation measurement (CTG, 72 h), SK-MEL-3; type: cell-based, human; settings: Homo sapiens, SK-MEL3; Assay 1, 72 h, Cell Titer Glo; read-out: SK-MEL-3 IC50 [nM] (melanoma)
Summary of the method: (§1)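 Cells were plated, grown overnight at 37 °C, then treated 72 h with a 10-step 2.5-fold dilution series from 100 nM maximum final (0.3% DMSO vehicle). Viability was read by CellTiter-Glo luminescence. IC50 from a 4-parameter fit, normalised to a 0 h plate (maximum inhibition) and DMSO control (minimum inhibition).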

[1] = Assay 6 in vitro metabolic stability in cryopreserved human hepatocytes (CL, Fmax); type: in vitro ADME; settings: 1 μM test compound; for Clblood: hepatic in vivo blood clearance calculated (well-stirred) from half-life in cryopreserved human hepatocytes; for Fmax: maximal oral bioavailability calculated from half-life in cryopreserved human hepatocytes
Experimental: Assay 6 Method for Human Cryo Hepatocytes:
Investigation of In Vitro Metabolic Stability in Cryopreserved Human Hepatocytes (Including Calculation of Hepatic In Vivo Blood Clearance (CL) and Maximal Oral Bioavailability (Fmax))
Cryopreserved Hepatocytes (e.g. purchased from Celsis InVitroTechnologies) were briefly thawed, washed with 45 mL pre-warmed in in vitro GRO HT medium and centrifuged for 5 min at 50×g. The cell pellet was resuspended in 5 ml of Krebs-Henseleit […] (KHB). Cell viability was determined by trypan blue exclusion.
For the metabolic stability assay liver cells were distributed in WME containing 5% FCS to glass vials at a density of 1.0×10^6 vital cells/ml. The test compound was added to a final concentration of 1 μM. During incubation, the hepatocyte suspensions were continuously shaken at 580 rpm and aliquots were taken at 2, 8, 16, 30, 45 and 90 min, to which equal volumes of cold methanol were immediately added. Samples were frozen at −20° C. over night, after subsequently centrifuged for 15 minutes at 3000 rpm and the supernatant was analyzed with an Agilent 1290 HPLC-system with LCMS/MS detection.
The half-life of a test compound was determined from the concentration-time plot. From the half-life the intrinsic clearances were calculated. Together with the additional parameters liver blood flow, amount of liver cells in vivo and in vitro. The hepatic in vivo blood clearance (CL) and the maximal oral bioavailability (Fmax) was calculated.

HeLa cells = assay: Assay 1 cell proliferation measurement (CTG, 72 h), HeLa; type: cell-based, human; settings: Homo sapiens, HeLa; Assay 1, 72 h, Cell Titer Glo; read-out: HeLa IC50 [nM] (Cervical cancer)
Summary of the method: as §1

human full length PDE3B = human full length PDE3B (Homo sapiens (Human), UniProt Q13370); assay: Assay 5 PDE3B enzyme inhibition (3H-cAMP SPA); type: biochemical; settings: Sf9 cell extract
human full length PDE3B, sequence (Q13370 whole entry): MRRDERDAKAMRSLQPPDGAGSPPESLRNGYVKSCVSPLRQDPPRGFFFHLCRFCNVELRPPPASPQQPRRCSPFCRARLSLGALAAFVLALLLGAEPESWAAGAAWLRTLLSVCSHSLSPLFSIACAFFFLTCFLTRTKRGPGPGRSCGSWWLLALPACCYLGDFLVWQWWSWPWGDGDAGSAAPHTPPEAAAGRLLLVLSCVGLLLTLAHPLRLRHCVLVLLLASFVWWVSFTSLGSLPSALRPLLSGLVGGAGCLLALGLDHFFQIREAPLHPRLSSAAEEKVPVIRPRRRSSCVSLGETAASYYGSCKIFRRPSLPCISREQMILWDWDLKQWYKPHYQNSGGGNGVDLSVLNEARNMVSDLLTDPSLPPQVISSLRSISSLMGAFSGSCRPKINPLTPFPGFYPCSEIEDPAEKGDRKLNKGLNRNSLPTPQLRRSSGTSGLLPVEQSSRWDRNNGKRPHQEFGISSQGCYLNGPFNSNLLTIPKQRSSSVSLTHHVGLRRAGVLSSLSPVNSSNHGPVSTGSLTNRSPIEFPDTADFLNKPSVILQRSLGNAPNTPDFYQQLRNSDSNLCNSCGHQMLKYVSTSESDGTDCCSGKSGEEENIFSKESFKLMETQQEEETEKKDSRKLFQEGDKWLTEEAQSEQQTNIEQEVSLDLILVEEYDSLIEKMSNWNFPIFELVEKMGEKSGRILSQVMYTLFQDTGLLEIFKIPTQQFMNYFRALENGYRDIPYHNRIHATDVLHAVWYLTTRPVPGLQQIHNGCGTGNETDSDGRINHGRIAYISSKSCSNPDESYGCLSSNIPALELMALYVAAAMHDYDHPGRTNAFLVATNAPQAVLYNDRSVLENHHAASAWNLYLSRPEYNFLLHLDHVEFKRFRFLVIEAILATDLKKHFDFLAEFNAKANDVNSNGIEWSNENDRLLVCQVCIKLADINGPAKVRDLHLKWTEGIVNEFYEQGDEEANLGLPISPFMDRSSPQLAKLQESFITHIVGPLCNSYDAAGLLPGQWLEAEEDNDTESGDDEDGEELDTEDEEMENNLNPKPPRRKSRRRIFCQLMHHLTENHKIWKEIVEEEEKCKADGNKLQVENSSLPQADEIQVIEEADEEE
Summary of the method: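 Compounds in DMSO are mixed with diluted PDE3B extract from Sf9 cells, and reactions start on adding tritiated cAMP. After 60 min at room temperature, yttrium scintillation proximity beads terminate hydrolysis and signal is counted; IC50 values come from sigmoidal dose-response curves.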

IGR37 cells = assay: Assay 1 cell proliferation measurement (CTG, 72 h), IGR37; type: cell-based; settings: Homo sapiens, IGR-37, Cell Titer Glo, read-out: IGR37 IC50 [nM] (melanoma)

human full length PDE3A, sequence (Q14432 whole entry): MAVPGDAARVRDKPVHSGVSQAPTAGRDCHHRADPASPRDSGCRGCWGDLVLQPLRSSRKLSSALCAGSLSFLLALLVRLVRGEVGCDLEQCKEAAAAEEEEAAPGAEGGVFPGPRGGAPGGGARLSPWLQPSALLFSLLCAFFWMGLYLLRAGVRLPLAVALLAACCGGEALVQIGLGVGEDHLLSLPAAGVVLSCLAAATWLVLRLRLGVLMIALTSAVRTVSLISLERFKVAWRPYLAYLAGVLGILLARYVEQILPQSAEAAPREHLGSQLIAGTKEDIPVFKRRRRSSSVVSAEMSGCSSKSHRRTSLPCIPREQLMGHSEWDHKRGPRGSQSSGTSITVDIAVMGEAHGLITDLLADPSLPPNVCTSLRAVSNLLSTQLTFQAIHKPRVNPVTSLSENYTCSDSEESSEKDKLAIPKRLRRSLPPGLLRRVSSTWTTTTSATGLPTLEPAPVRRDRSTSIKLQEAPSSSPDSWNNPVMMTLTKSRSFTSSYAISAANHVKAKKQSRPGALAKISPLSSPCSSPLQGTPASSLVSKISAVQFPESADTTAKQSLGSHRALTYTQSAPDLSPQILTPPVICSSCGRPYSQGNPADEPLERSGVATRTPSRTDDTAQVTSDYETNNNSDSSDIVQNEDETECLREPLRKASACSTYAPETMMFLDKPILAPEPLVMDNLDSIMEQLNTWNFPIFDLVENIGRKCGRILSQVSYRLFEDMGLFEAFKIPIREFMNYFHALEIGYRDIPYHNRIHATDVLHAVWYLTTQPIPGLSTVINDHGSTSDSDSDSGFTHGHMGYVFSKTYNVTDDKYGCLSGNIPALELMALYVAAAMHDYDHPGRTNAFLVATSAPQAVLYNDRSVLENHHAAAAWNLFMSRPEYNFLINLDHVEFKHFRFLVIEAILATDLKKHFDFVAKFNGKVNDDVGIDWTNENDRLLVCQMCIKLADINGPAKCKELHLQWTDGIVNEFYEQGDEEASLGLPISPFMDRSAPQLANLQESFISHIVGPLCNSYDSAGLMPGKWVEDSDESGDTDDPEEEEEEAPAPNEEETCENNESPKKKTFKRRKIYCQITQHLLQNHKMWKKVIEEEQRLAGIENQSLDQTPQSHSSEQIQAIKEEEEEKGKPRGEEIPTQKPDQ

Compound | IC50 (human full length PDE3A) [nM] | IC50 (SK-MEL-3 cells) [nM] | Clblood [1] [mL/min/kg] | Fmax [1] [%] | IC50 (HeLa cells) [nM] | IC50 (human full length PDE3B) [nM] | IC50 (IGR37 cells) [nM]
CCC1(O)CCN(c2ccc(C3=NNC(=O)OC3)cc2C(F)(F)F)CC1 [Example 253, 5-[4-(4-Ethyl-4-hydroxypiperidin-1-yl)-3-(trifluoromethyl)phenyl]-3,6-dihydro-2H-1,3,4-oxadiazin-2-one] | 190 | 40 | – | – | 1 | 155 | 5
CC(Nc1ccc(C2=NNC(=O)OC2)cc1C(F)(F)F)C1CC1 (racemic) [Example 240, (rac)-5-{4-[(1-cyclopropylethyl)amino]-3-(trifluoromethyl)phenyl}-3,6-dihydro-2H-1,3,4-oxadiazin-2-one] | 180 | 12 | – | – | 3 | 260 | 10
O=C1NN=C(c2ccc(-c3ccc(F)cc3)c(C(F)F)c2)CO1 [Example 198, 5-[2-(Difluoromethyl)-4′-fluoro[1,1′-biphenyl]-4-yl]-3,6-dihydro-2H-1,3,4-oxadiazin-2-one] | 170 | 14 | 7.33 | 67 | 6 | 130 | –
Cc1cc(F)ccc1-c1ccc(C2=NNC(=O)OC2)cc1F [Example 162, 5-(2,4′-Difluoro-2′-methyl[1,1′-biphenyl]-4-yl)-3,6-dihydro-2H-1,3,4-oxadiazin-2-one] | 210 | 7 | 10.3 | 53 | 4 | 120 | –
C[C@@H]1OC(=O)NN=C1c1ccc(N2CC(C)(O)C2)c(C(F)(F)F)c1 [Example 280, (6S)-5-[4-(3-Hydroxy-3-methylazetidin-1-yl)-3-(trifluoromethyl)phenyl]-6-methyl-3,6-dihydro-2H-1,3,4-oxadiazin-2-one] | – | 0.4 | – | – | 0.1 | – | 0.4
NC(=O)CNc1ccc(C2=NNC(=O)OC2)cc1C(F)(F)F [Example 256, N^2-[4-(2-Oxo-3,6-dihydro-2H-1,3,4-oxadiazin-5-yl)-2-(trifluoromethyl)phenyl]glycinamide] | 240 | 63 | 1.2 | 95 | 37 | 480 | –
O=C1NN=C(c2ccc(-c3cnn(C(F)F)c3)c(C(F)F)c2)CO1 [Example 195, 5-{3-(Difluoromethyl)-4-[1-(difluoromethyl)-1H-pyrazol-4-yl]phenyl}-3,6-dihydro-2H-1,3,4-oxadiazin-2-one] | 58 | 5 | <0.17 | 100 | 2 | 77 | –
CC(C)c1ccc(C2=NNC(=O)OC2)cc1C(F)(F)F [Example 270, 5-[4-(Propan-2-yl)-3-(trifluoromethyl)phenyl]-3,6-dihydro-2H-1,3,4-oxadiazin-2-one] | 55 | 15 | <0.17 | 100 | 9 | 170 | –
CCC(CNc1ccc(C2=NNC(=O)OC2)cc1C(F)(F)F)OC (centres unmarked) [Example 281, 5-{4-[(2-methoxybutyl)amino]-3-(trifluoromethyl)phenyl}-3,6-dihydro-2H-1,3,4-oxadiazin-2-one] | – | – | 14.2 | 35 | 12 | – | –
CC1(O)CN(c2ccc(C3=NNC(=O)OC3)cc2C(F)(F)F)C1 [Example 203, 5-[4-(3-Hydroxy-3-methylazetidin-1-yl)-3-(trifluoromethyl)phenyl]-3,6-dihydro-2H-1,3,4-oxadiazin-2-one] | 37 | 2 | 10.2 | 54 | 1 | 88 | –
C[C@@H]1OC(=O)NN=C1c1ccc(N2CC(F)(F)C2)c(C(F)(F)F)c1 [Example 279, (6S)-5-[4-(3,3-Difluoroazetidin-1-yl)-3-(trifluoromethyl)phenyl]-6-methyl-3,6-dihydro-2H-1,3,4-oxadiazin-2-one] | – | 2 | – | – | 1 | – | 2
CC(C)Cc1ccc(C2=NNC(=O)OC2)cc1C(F)(F)F [Example 268, 5-[4-(2-Methylpropyl)-3-(trifluoromethyl)phenyl]-3,6-dihydro-2H-1,3,4-oxadiazin-2-one] | 138 | 3 | 5 | 78 | 1 | 110 | –
O=C1NN=C(c2ccc(N3CCC(F)(F)CC3)c(C(F)(F)F)c2)CO1 [Example 232, 5-[4-(4,4-Difluoropiperidin-1-yl)-3-(trifluoromethyl)phenyl]-3,6-dihydro-2H-1,3,4-oxadiazin-2-one] | – | 5 | – | – | 2 | – | 4
O=C1NN=C(c2ccc(-c3ccc(Cl)cc3)c(C(F)F)c2)CO1 [Example 199, 5-[4′-Chloro-2-(difluoromethyl)[1,1′-biphenyl]-4-yl]-3,6-dihydro-2H-1,3,4-oxadiazin-2-one] | 210 | 5 | 15.7 | 29 | 2 | 200 | –

More lines, in order of falling IC50 (HeLa cells), values ahead:

IC50 (human full length PDE3A) [nM] | IC50 (SK-MEL-3 cells) [nM] | Clblood [1] [mL/min/kg] | Fmax [1] [%] | IC50 (HeLa cells) [nM] | IC50 (human full length PDE3B) [nM] | Compound | IC50 (IGR37 cells) [nM]
> 1000 | 38 | 3.17 | 86 | 20 | > 1000 | O=C1NN=C(c2ccc(-c3ccc(Cl)cc3)c(OC(F)(F)F)c2)CO1 [Example 71, 5-[4′-Chloro-2-(trifluoromethoxy)biphenyl-4-yl]-3,6-dihydro-2H-1,3,4-oxadiazin-2-one] | –
440 | 33 | 3.17 | 85 | 15 | 240 | Cc1cc(F)ccc1-c1ccc(C2=NNC(=O)OC2)cc1C [Example 9, 5-(4′-Fluoro-2,2′-dimethylbiphenyl-4-yl)-3,6-dihydro-2H-1,3,4-oxadiazin-2-one] | –
280 | 14 | – | – | 7 | 250 | CNc1ccc(-c2ccc(C3=NNC(=O)OC3)cc2C(F)(F)F)cc1 [Example 55, 5-[4′-(Methylamino)-2-(trifluoromethyl)biphenyl-4-yl]-3,6-dihydro-2H-1,3,4-oxadiazin-2-one] | –
72 | 4 | 5.33 | 76 | 2 | 81 | O=C1NN=C(c2ccc(-c3ccc(F)cc3F)c(F)c2)CO1 [Example 111, 5-(2,2′,4′-Trifluoro[1,1′-biphenyl]-4-yl)-3,6-dihydro-2H-1,3,4-oxadiazin-2-one] | –
165 | 3 | 5.83 | 74 | 2 | 200 | CC(C)(C)Nc1ccc(C2=NNC(=O)OC2)cc1C(F)(F)F [Example 224, 5-[4-(tert-Butylamino)-3-(trifluoromethyl)phenyl]-3,6-dihydro-2H-1,3,4-oxadiazin-2-one] | –
58 | 1 | 8.5 | 61 | 1 | 80 | COC/C=C/c1ccc(C2=NNC(=O)OC2)cc1C(F)(F)F [Example 140, 5-{4-[3-Methoxyprop-1-en-1-yl]-3-(trifluoromethyl)phenyl}-3,6-dihydro-2H-1,3,4-oxadiazin-2-one] | –
48 | 3 | 14.3 | 35 | 1 | 170 | CCOCCNc1ccc(C2=NNC(=O)OC2)cc1C(F)(F)F [Example 260, 5-{4-[(2-Ethoxyethyl)amino]-3-(trifluoromethyl)phenyl}-3,6-dihydro-2H-1,3,4-oxadiazin-2-one] | –
